Where two headings read alike, the source gives them in different places.
Tests used:
[1] = system: human foreskin fibroblasts (HFF); experiment: HFF cytotoxicity assessment; type: cell-based; conditions: for IC50: Homo sapiens, Fibroblast, uninfected HFF, no decline in viability over the concentration range
Protocol: (§1) HFF cytotoxicity assessments and IC50 determinations using cultures of Tg-β-gal tachyzoites grown in HFF were carried out as described previously. IC50 values were calculated with the logit-log-transformation of the relative growth and subsequent regression analysis was done with the corresponding software tool contained in Microsoft Excel software package (Microsoft, Seattle, WA). For the long-term treatments, HFF grown in T25 culture flasks were infected with 5 × 10^5 TgMe49 tachyzoites, and after 4.5 h 0.5 μM DCQ, RMB054 or RMB060 were added. Infected cultures treated with the highest corresponding concentration of DMSO (0.5%) served as controls. Prolonged treatments for up to 24 days were carried out, with the addition of fresh medium containing the respective drug every 3–4 days. Cultures were inspected by light microscopy on a daily basis. On days 3, 6, 9, 13, 16, 20 and 24, the compound-containing medium was removed, and parasites were maintained without drug pressure until host cell lysis (plaque formation) was evident.

[2] = system: T. gondii β-gal tachyzoites; experiment: IC50 determination with T. gondii β-gal tachyzoites grown in HFF monolayers; type: cell-based, Toxoplasma gondii; conditions: for Selectivity Index: HFF vs T. gondii, compound applied prior to / concomitantly with infection; for IC50: Toxoplasma gondii, Tg-β-gal in HFF, [upper, lower limit of 95% CI], read-out: IC50 T. gondii (nM) [LS
Protocol: The efficacy of DCQ in vitro was determined using T. gondii β-gal constitutively expressing β-galactosidase grown in HFF monolayers. […] The low IC50 values and the low degree of cytotoxicity against HFF host cells in vitro encouraged us to examine the efficacy of oral treatment of CD1 mice infected with T. gondii oocysts with DCQ at 10 mg/kg/day for 5 days.
Due to the negative effects of treatment with DCQ, we investigated the efficacy in vitro of the three DCQ derivatives RMB054, RMB055 and RMB060 (Figure 1) in comparison to DCQ. Different concentrations of DCQ and the derivatives in DMSO were added to HFF either concomitantly with infection of T. gondii-β-gal tachyzoites, or 3 h after infection. […] The corresponding dose-response curves are shown in Supplementary Materials Figure S1. The viability of uninfected HFF was not impaired by the compounds up to concentrations of 5 µM (DCQ and RMB054) or 10 µM (RMB055, RMB060) (Table 1).
as §1

[3] = system: BAG1 (bradyzoite antigen 1) expression in T. gondii Me49; experiment: Immunofluorescence staining for BAG1 expression in TgMe49-infected HFF; type: cell-based, Toxoplasma gondii; conditions: treatment for 48 h
Protocol: For immunofluorescence microscopy, 4 × 10^4 HFF were grown on glass coverslips for 24 h to form a sub-confluent monolayer and were exposed to 1.2 × 10^5 TgMe49 tachyzoites during 4 h at 37 °C and 5% CO2. The medium was replaced and supplemented with 20 nM DCQ and RMB060, or medium containing DMSO as control. Cultures infected with TgPgSp1 (low passage number) served as positive control for BAG1 (bradyzoite antigen 1) expression. Infected cells were cultured for 16 h, 24 h, and 48 h and fixed and labelled for immunofluorescence staining as described previously. A polyclonal rabbit anti-BAG1 antiserum was applied at 1:200 dilution, followed by a goat-anti-rabbit fluorescein-isothiocyanate conjugate (1:300), the monoclonal mouse anti-TgSAG1 antibody was diluted (1:100), followed by goat anti-mouse conjugated to tetramethylrhodamine-isothiocyanate at 1:300. Subsequently, samples were mounted in H-1200 Vectashield mounting medium (Vector Laboratories, Burlingame, CA, USA) containing 4,6-diamidino-2-phenylindole and were viewed on a Nikon E80i fluorescence microscope (Tokyo, Japan). Processing of images was performed using Openlab 5.5.2 (Improvision, PerkinElmer, Waltham, MA, USA) and the ImageJ software, version 1.53 m.

[4] = compound added 3 h post-infection, LI] Compound Added 3 h Post-infection
[5] = compound added prior to / concomitantly with infection, LI] Compound Added Prior to Infection

Row | SMILES | Concentration up to which viability of uninfected HFF was not impaired [1] | IC50 [1] | Selectivity Index [2] | IC50 [2, 4] | IC50 [2, 5] | Expression of the bradyzoite marker BAG1 [3]
1 | CCCCCCCCCCOc1cc2c(OC(=O)N3CCN(CC)C(=O)C3=O)c(C(=O)OCCOC)cnc2cc1OCC [RMB054] | 5 µM | > 5000 nM | >435 | 11.4 nM | 11.5 nM | not clearly detectable
2 | CCCCCCCCCCOc1cc2c(OC(=O)N3CCN(S(C)(=O)=O)C3=O)c(C(=O)OCCOC)cnc2cc1OCC [RMB055] | 10 µM | > 10000 nM | >50 | 227 nM | 200 nM | –
